# Measurements taken from PubChem BioAssay (NCI).
#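 48-hour exposure; five concentrations; linearly interpolated endpoints. At the TGI there is no net growth.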
# Experiments:
# Assay in all cases: growth of human tumour cells (NCI), 48 h
# 786-0 renal = tested on: 786-0 renal
# A498 renal = tested on: A498 renal
# A549 NSCLC = tested on: A549 NSCLC
# ACHN renal = tested on: ACHN renal
# BT-549 breast = tested on: BT-549 breast
# CAKI-1 renal = tested on: CAKI-1 renal
# CCRF-CEM leukemia = tested on: CCRF-CEM leukemia
# COLO 205 colon = tested on: COLO 205 colon
# DU-145 prostate = tested on: DU-145 prostate
# EKVX NSCLC = tested on: EKVX NSCLC
# HCC-2998 colon = tested on: HCC-2998 colon
# HCT-116 colon = tested on: HCT-116 colon
# HCT-15 colon = tested on: HCT-15 colon
# HL-60(TB) leukemia = tested on: HL-60(TB) leukemia
# HOP-62 NSCLC = tested on: HOP-62 NSCLC
# HOP-92 NSCLC = tested on: HOP-92 NSCLC
# HS 578T breast = tested on: HS 578T breast
# HT29 colon = tested on: HT29 colon
# IGROV1 ovarian = tested on: IGROV1 ovarian
# KM12 colon = tested on: KM12 colon
# LOX IMVI melanoma = tested on: LOX IMVI melanoma
# M14 melanoma = tested on: M14 melanoma
# MALME-3M melanoma = tested on: MALME-3M melanoma
# MCF7 breast = tested on: MCF7 breast
# MDA-MB-231 breast = tested on: MDA-MB-231 breast
# MDA-MB-435 = tested on: MDA-MB-435
# MDA-N = tested on: MDA-N
# MOLT-4 leukemia = tested on: MOLT-4 leukemia
# NCI-H226 lung = tested on: NCI-H226 lung
# NCI-H23 lung = tested on: NCI-H23 lung
# NCI-H460 lung = tested on: NCI-H460 lung
# NCI-H522 lung = tested on: NCI-H522 lung
# NCI/ADR-RES ovarian = tested on: NCI/ADR-RES ovarian
# OVCAR-3 ovarian = tested on: OVCAR-3 ovarian
# OVCAR-4 ovarian = tested on: OVCAR-4 ovarian
# OVCAR-5 ovarian = tested on: OVCAR-5 ovarian
# OVCAR-8 ovarian = tested on: OVCAR-8 ovarian
# PC-3 prostate = tested on: PC-3 prostate
# RPMI-8226 leukemia = tested on: RPMI-8226 leukemia
# SF-268 CNS = tested on: SF-268 CNS
# SF-295 CNS = tested on: SF-295 CNS
# SF-539 CNS = tested on: SF-539 CNS
# SK-MEL-2 melanoma = tested on: SK-MEL-2 melanoma
# SK-MEL-28 melanoma = tested on: SK-MEL-28 melanoma
# SK-MEL-5 melanoma = tested on: SK-MEL-5 melanoma
# SK-OV-3 ovarian = tested on: SK-OV-3 ovarian
# SN12C renal = tested on: SN12C renal
# SNB-19 CNS = tested on: SNB-19 CNS
# SNB-75 CNS = tested on: SNB-75 CNS
# SW-620 colon = tested on: SW-620 colon
# T-47D breast = tested on: T-47D breast
# TK-10 renal = tested on: TK-10 renal
# U251 CNS = tested on: U251 CNS
# UACC-257 melanoma = tested on: UACC-257 melanoma
# UACC-62 melanoma = tested on: UACC-62 melanoma
# RXF 393 renal = tested on: RXF 393 renal
# UO-31 renal = tested on: UO-31 renal
# K-562 leukemia = tested on: K-562 leukemia
structure (smiles),measurement,setting,value
CSc1nc(Br)nc2c1ncn2C1CC(Oc2ccc(C)cc2)C(COc2ccc(C)cc2)O1 (stereo not given),TGI,786-0 renal,> 100 µM
same,TGI,A498 renal,> 100 µM
same,TGI,A549 NSCLC,> 100 µM
same,TGI,ACHN renal,> 100 µM
same,TGI,BT-549 breast,> 100 µM
same,TGI,CAKI-1 renal,> 100 µM
same,TGI,CCRF-CEM leukemia,> 100 µM
same,TGI,COLO 205 colon,> 100 µM
same,TGI,DU-145 prostate,> 100 µM
same,TGI,EKVX NSCLC,> 100 µM
same,TGI,HCC-2998 colon,> 100 µM
same,TGI,HCT-116 colon,> 100 µM
same,TGI,HCT-15 colon,> 100 µM
same,TGI,HL-60(TB) leukemia,> 100 µM
same,TGI,HOP-62 NSCLC,> 100 µM
same,TGI,HOP-92 NSCLC,> 100 µM
same,TGI,HS 578T breast,65.5 µM
same,TGI,HT29 colon,> 100 µM
same,TGI,IGROV1 ovarian,> 100 µM
same,TGI,KM12 colon,> 100 µM
same,TGI,LOX IMVI melanoma,> 100 µM
same,TGI,M14 melanoma,> 100 µM
same,TGI,MALME-3M melanoma,> 100 µM
same,TGI,MCF7 breast,> 100 µM
same,TGI,MDA-MB-231 breast,> 100 µM
same,TGI,MDA-MB-435,> 100 µM
same,TGI,MDA-N,> 100 µM
same,TGI,MOLT-4 leukemia,> 100 µM
same,TGI,NCI-H226 lung,> 100 µM
same,TGI,NCI-H23 lung,> 100 µM
same,TGI,NCI-H460 lung,> 100 µM
same,TGI,NCI-H522 lung,> 100 µM
same,TGI,NCI/ADR-RES ovarian,> 100 µM
same,TGI,OVCAR-3 ovarian,> 100 µM
same,TGI,OVCAR-4 ovarian,> 100 µM
same,TGI,OVCAR-5 ovarian,> 100 µM
same,TGI,OVCAR-8 ovarian,> 100 µM
same,TGI,PC-3 prostate,> 100 µM
same,TGI,RPMI-8226 leukemia,> 100 µM
same,TGI,SF-268 CNS,> 100 µM
same,TGI,SF-295 CNS,> 100 µM
same,TGI,SF-539 CNS,> 100 µM
same,TGI,SK-MEL-2 melanoma,> 100 µM
same,TGI,SK-MEL-28 melanoma,> 100 µM
same,TGI,SK-MEL-5 melanoma,> 100 µM
same,TGI,SK-OV-3 ovarian,> 100 µM
same,TGI,SN12C renal,> 100 µM
same,TGI,SNB-19 CNS,73.8 µM
same,TGI,SNB-75 CNS,94.6 µM
same,TGI,SW-620 colon,> 100 µM
same,TGI,T-47D breast,> 100 µM
same,TGI,TK-10 renal,> 100 µM
same,TGI,U251 CNS,> 100 µM
same,TGI,UACC-257 melanoma,> 100 µM
same,TGI,UACC-62 melanoma,> 100 µM
OCc1ccccc1OC1OC(CO)C(O)C(O)C1O (stereo not given),TGI,786-0 renal,> 100 µM
same,TGI,A498 renal,> 100 µM
same,TGI,A549 NSCLC,> 100 µM
same,TGI,ACHN renal,> 100 µM
same,TGI,BT-549 breast,> 100 µM
same,TGI,CAKI-1 renal,> 100 µM
same,TGI,CCRF-CEM leukemia,> 100 µM
same,TGI,COLO 205 colon,> 100 µM
same,TGI,DU-145 prostate,> 100 µM
same,TGI,EKVX NSCLC,> 100 µM
same,TGI,HCC-2998 colon,> 100 µM
same,TGI,HCT-116 colon,> 100 µM
same,TGI,HCT-15 colon,> 100 µM
same,TGI,HL-60(TB) leukemia,> 100 µM
same,TGI,HOP-62 NSCLC,> 100 µM
same,TGI,HOP-92 NSCLC,> 100 µM
same,TGI,HS 578T breast,> 100 µM
same,TGI,HT29 colon,> 100 µM
same,TGI,IGROV1 ovarian,> 100 µM
same,TGI,KM12 colon,> 100 µM
same,TGI,LOX IMVI melanoma,> 100 µM
same,TGI,M14 melanoma,> 100 µM
same,TGI,MALME-3M melanoma,> 100 µM
same,TGI,MCF7 breast,> 100 µM
same,TGI,MDA-MB-231 breast,> 100 µM
same,TGI,MDA-MB-435,> 100 µM
same,TGI,MDA-N,> 100 µM
same,TGI,MOLT-4 leukemia,> 100 µM
same,TGI,NCI-H226 lung,> 100 µM
same,TGI,NCI-H23 lung,> 100 µM
same,TGI,NCI-H460 lung,> 100 µM
same,TGI,NCI-H522 lung,> 100 µM
same,TGI,NCI/ADR-RES ovarian,> 100 µM
same,TGI,OVCAR-3 ovarian,> 100 µM
same,TGI,OVCAR-4 ovarian,> 100 µM
same,TGI,OVCAR-5 ovarian,> 100 µM
same,TGI,OVCAR-8 ovarian,> 100 µM
same,TGI,PC-3 prostate,> 100 µM
same,TGI,RPMI-8226 leukemia,> 100 µM
same,TGI,RXF 393 renal,> 100 µM
same,TGI,SF-268 CNS,> 100 µM
same,TGI,SF-295 CNS,> 100 µM
same,TGI,SF-539 CNS,> 100 µM
same,TGI,SK-MEL-2 melanoma,> 100 µM
same,TGI,SK-MEL-28 melanoma,> 100 µM
same,TGI,SK-MEL-5 melanoma,> 100 µM
same,TGI,SK-OV-3 ovarian,> 100 µM
same,TGI,SN12C renal,> 100 µM
same,TGI,SNB-75 CNS,> 100 µM
same,TGI,SW-620 colon,> 100 µM
same,TGI,T-47D breast,> 100 µM
same,TGI,TK-10 renal,> 100 µM
same,TGI,U251 CNS,> 100 µM
same,TGI,UACC-257 melanoma,> 100 µM
same,TGI,UACC-62 melanoma,> 100 µM
same,TGI,UO-31 renal,> 100 µM
C=CC1(CCC(Br)C(C)(C)Cl)CO1 (stereo not given),TGI,786-0 renal,> 10 µM
same,TGI,A498 renal,> 10 µM
same,TGI,A549 NSCLC,> 10 µM
same,TGI,ACHN renal,> 10 µM
same,TGI,BT-549 breast,> 10 µM
same,TGI,CAKI-1 renal,> 10 µM
same,TGI,CCRF-CEM leukemia,> 10 µM
same,TGI,COLO 205 colon,> 10 µM
same,TGI,DU-145 prostate,> 10 µM
same,TGI,EKVX NSCLC,> 10 µM
same,TGI,HCC-2998 colon,> 10 µM
same,TGI,HCT-116 colon,> 10 µM
same,TGI,HCT-15 colon,> 10 µM
same,TGI,HOP-62 NSCLC,> 10 µM
same,TGI,HOP-92 NSCLC,> 10 µM
same,TGI,HT29 colon,> 10 µM
same,TGI,IGROV1 ovarian,> 10 µM
same,TGI,K-562 leukemia,> 10 µM
same,TGI,KM12 colon,> 10 µM
same,TGI,M14 melanoma,> 10 µM
same,TGI,MALME-3M melanoma,> 10 µM
same,TGI,MCF7 breast,> 10 µM
same,TGI,MDA-MB-231 breast,> 10 µM
same,TGI,MDA-MB-435,> 10 µM
same,TGI,MDA-N,> 10 µM
same,TGI,MOLT-4 leukemia,> 10 µM
same,TGI,NCI-H460 lung,> 10 µM
same,TGI,NCI-H522 lung,> 10 µM
same,TGI,NCI/ADR-RES ovarian,> 10 µM
same,TGI,OVCAR-3 ovarian,> 10 µM
same,TGI,OVCAR-5 ovarian,> 10 µM
same,TGI,OVCAR-8 ovarian,> 10 µM
same,TGI,PC-3 prostate,> 10 µM
same,TGI,RPMI-8226 leukemia,> 10 µM
same,TGI,SF-268 CNS,> 10 µM
same,TGI,SF-295 CNS,> 10 µM
same,TGI,SF-539 CNS,> 10 µM
same,TGI,SK-MEL-2 melanoma,> 10 µM
same,TGI,SK-MEL-28 melanoma,> 10 µM
same,TGI,SK-MEL-5 melanoma,> 10 µM
same,TGI,SK-OV-3 ovarian,> 10 µM
same,TGI,SN12C renal,> 10 µM
same,TGI,SNB-19 CNS,> 10 µM
same,TGI,SNB-75 CNS,> 10 µM
same,TGI,SW-620 colon,> 10 µM
same,TGI,T-47D breast,> 10 µM
same,TGI,TK-10 renal,> 10 µM
same,TGI,U251 CNS,> 10 µM
same,TGI,UO-31 renal,> 10 µM
